Assay results published in patent US8309718B2, “4-pyrazolyl-N-arylpyrimidin-2-amines and 4-pyrazolyl-N-heteroarylpyrimidin-2-amines as janus kinase inhibitors” (Incyte Corporation, priority 2007, dated 2012).
pIC50: −log10 of the molar value.

These molecules were tested against T1, human JAK2 (Homo sapiens, UniProt O60674) (assay: In vitro JAK kinase assay (HTRF, phosphorylation of biotinylated peptide)). Conditions: catalytic domain a.a. 828-1132, 30 μM ATP, 500 nM peptide, room temperature 1 hr; read-out: JAK-2 IC50.
T1 construct: JAK2 (a.a. 828-1132); His tag (N); made in house; host or cells: insect cells (baculovirus)
T1 sequence (O60674 828-1132): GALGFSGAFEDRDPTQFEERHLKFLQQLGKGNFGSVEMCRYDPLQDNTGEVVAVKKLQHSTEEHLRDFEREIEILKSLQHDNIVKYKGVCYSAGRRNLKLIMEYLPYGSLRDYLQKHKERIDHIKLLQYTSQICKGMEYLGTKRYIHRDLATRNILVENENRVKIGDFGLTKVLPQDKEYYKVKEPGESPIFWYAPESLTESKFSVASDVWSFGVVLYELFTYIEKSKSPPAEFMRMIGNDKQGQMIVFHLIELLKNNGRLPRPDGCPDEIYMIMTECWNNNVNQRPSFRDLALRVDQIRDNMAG
Format: biochemical
Method in brief: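 His-tagged human JAK2 catalytic domain (a.a. 828-1132), baculovirus/insect-cell expressed; phosphorylation of 500 nM biotinylated peptide at 30 μM ATP in 50 mM Tris pH 7.8, 100 mM NaCl, 5 mM DTT, 0.01% BSA. 1 h at room temperature, EDTA stop, HTRF read (Eu-Py20/SA-APC); IC50.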

Row | SMILES | pIC50
1 | Cc1cnc(Nc2ccc(N)cc2)nc1-c1cnn(C(CC#N)C2CCCC2)c1 (racemic) [Example 85, 3-(4-(2-(4-aminophenylamino)-5-methylpyrimidin-4-yl)-1H-pyrazol-1-yl)-3-cyclopentylpropanenitrile] | > 7.00
2 | CNC(=O)c1ccc(Nc2ncc(C)c(-c3cnn(C(CC#N)C4CCCC4)c3)n2)cc1 (racemic) [Example 86, 4-(4-(1-(2-cyano-1-cyclopentylethyl)-1H-pyrazol-4-yl)-5-methylpyrimidin-2-ylamino)-N-methylbenzamide] | > 7.00
3 | Cc1cnc(Nc2ccc(C(=O)N3CCC(O)CC3)cc2)nc1-c1cnn(C(CC#N)C2CCCC2)c1 (racemic) [Example 88, 3-cyclopentyl-3-(4-(2-(4-(4-hydroxypiperidine-1-carbonyl)phenylamino)-5-methylpyrimidin-4-yl)-1H-pyrazol-1-yl)propanenitrile] | > 7.00
4 | Cc1cnc(Nc2ccc(NS(C)(=O)=O)cc2)nc1-c1cnn(C(CC#N)C2CCCC2)c1 (racemic) [Example 89, N-(4-(4-(1-(2-cyano-1-cyclopentylethyl)-1H-pyrazol-4-yl)-5-methylpyrimidin-2-ylamino)phenyl)methanesulfonamide] | > 7.00
5 | COC(=O)Nc1ccc(Nc2ncc(C)c(-c3cnn(C(CC#N)C4CCCC4)c3)n2)cc1 (racemic) [Example 90, Methyl 4-(4-(1-(2-cyano-1-cyclopentylethyl)-1H-pyrazol-4-yl)-5-methylpyrimidin-2-ylamino)phenylcarbamate] | > 7.00
6 | Cc1cnc(Nc2ccc(NC(=O)CN3CCCC3)cc2)nc1-c1cnn(C(CC#N)C2CCCC2)c1 (racemic) [Example 91, N-(4-(4-(1-(2-cyano-1-cyclopentylethyl)-1H-pyrazol-4-yl)-5-methylpyrimidin-2-ylamino)phenyl)-2-(pyrrolidin-1-yl)acetamide] | > 7.00
7 | N#CCC(CC1CCNCC1)n1cc(-c2ccnc(Nc3ccc(N4CCOCC4=O)cc3)n2)cn1 (racemic) [Example 92, 3-(4-(2-(4-(3-oxomorpholino)phenylamino)pyrimidin-4-yl)-1H-pyrazol-1-yl)-4-(piperidin-4-yl)butanenitrile] | < 7.00
8 | CS(=O)(=O)N1CCC(CC(CC#N)n2cc(-c3ccnc(Nc4ccc(N5CCOCC5=O)cc4)n3)cn2)CC1 (racemic) [Example 95, 4-(1-(methylsulfonyl)piperidin-4-yl)-3-(4-(2-(4-(3-oxomorpholino)phenylamino)pyrimidin-4-yl)-1H-pyrazol-1-yl)butanenitrile] | > 7.00
9 | CCS(=O)(=O)N1CCC(CC(CC#N)n2cc(-c3ccnc(Nc4ccc(N5CCOCC5=O)cc4)n3)cn2)CC1 (racemic) [Example 96, 4-(1-(ethylsulfonyl)piperidin-4-yl)-3-(4-(2-(4-(3-oxomorpholino)phenylamino)pyrimidin-4-yl)-1H-pyrazol-1-yl)butanenitrile] | > 7.00
10 | N#CCC(CC1CCN(S(=O)(=O)C2CC2)CC1)n1cc(-c2ccnc(Nc3ccc(N4CCOCC4=O)cc3)n2)cn1 (racemic) [Example 97, 4-(1-(cyclopropylsulfonyl)piperidin-4-yl)-3-(4-(2-(4-(3-oxomorpholino)phenylamino)pyrimidin-4-yl)-1H-pyrazol-1-yl)butanenitrile] | > 7.00
11 | N#CCC(C1CCCC1)n1cc(-c2ccnc(Nc3ccc(N4CCOCC4=O)cc3)n2)cn1 (racemic) [Example 98, 3-cyclopentyl-3-(4-(2-(4-(3-oxomorpholino)phenylamino)pyrimidin-4-yl)-1H-pyrazol-1-yl)propanenitrile] | > 7.00
12 | Cc1nccc(-c2cccc(Nc3nccc(-c4cnn(C(CC#N)C5CCCC5)c4)n3)c2)n1 (racemic) [Example 99, 3-cyclopentyl-3-(4-(2-(3-(2-methylpyrimidin-4-yl)phenylamino)pyrimidin-4-yl)-1H-pyrazol-1-yl)propanenitrile] | > 7.00
13 | COc1cnc(Nc2ccc(N3CCOCC3)cc2)nc1-c1cnn(C(CC#N)C2CCCC2)c1 (racemic) [Example 101, 3-cyclopentyl-3-(4-(5-methoxy-2-(4-morpholinophenylamino)pyrimidin-4-yl)-1H-pyrazol-1-yl)propanenitrile] | > 7.00
14 | COc1cnc(Nc2ccc(-n3cccn3)cc2)nc1-c1cnn(C(CC#N)C2CCCC2)c1 (racemic) [Example 102, 3-(4-(2-(4-(1H-pyrazol-1-yl)phenylamino)-5-methoxypyrimidin-4-yl)-1H-pyrazol-1-yl)-3-cyclopentylpropanenitrile] | > 7.00
15 | COc1cnc(Nc2ccc(NC(C)=O)cc2)nc1-c1cnn(C(CC#N)C2CCCC2)c1 (racemic) [Example 103, N-(4-(4-(1-(2-cyano-1-cyclopentylethyl)-1H-pyrazol-4-yl)-5-methoxypyrimidin-2-ylamino)phenyl)acetamide] | > 7.00
16 | COc1cnc(Nc2ccc(C(=O)N(C)C)cc2)nc1-c1cnn(C(CC#N)C2CCCC2)c1 (racemic) [Example 104, 4-(4-(1-(2-cyano-1-cyclopentylethyl)-1H-pyrazol-4-yl)-5-methoxypyrimidin-2-ylamino)-N,N-dimethylbenzamide] | > 7.00

Row | SMILES | pIC50
17 | N#CCC(C1CCCC1)n1cc(-c2ccnc(Nc3ccc(N4CCCCC4=O)cc3)n2)cn1 (racemic) [Example 105, 3-cyclopentyl-3-(4-(2-(4-(2-oxopiperidin-1-yl)phenylamino)pyrimidin-4-yl)-1H-pyrazol-1-yl)propanenitrile] | > 7.00
18 | N#CCC(C1CCCC1)n1cc(-c2ccnc(Nc3ccc(N4CCCOC4=O)cc3)n2)cn1 (racemic) [Example 106, 3-cyclopentyl-3-(4-(2-(4-(2-oxo-1,3-oxazinan-3-yl)phenylamino)pyrimidin-4-yl)-1H-pyrazol-1-yl)propanenitrile] | > 7.00
19 | N#CCC(C1CCCC1)n1cc(-c2ccnc(Nc3ccc(N4CCOC4=O)cc3)n2)cn1 (racemic) [Example 107, 3-cyclopentyl-3-(4-(2-(4-(2-oxooxazolidin-3-yl)phenylamino)pyrimidin-4-yl)-1H-pyrazol-1-yl)propanenitrile] | > 7.00
20 | N#CCC(C1CCCC1)n1cc(-c2ccnc(Nc3cccc(N)c3)n2)cn1 (racemic) [Example 108, 3-(4-(2-(3-aminophenylamino)pyrimidin-4-yl)-1H-pyrazol-1-yl)-3-cyclopentylpropanenitrile] | > 7.00
21 | CNC(=O)c1cccc(Nc2nccc(-c3cnn(C(CC#N)C4CCCC4)c3)n2)c1 (racemic) [Example 109, 3-(4-(1-(2-cyano-1-cyclopentylethyl)-1H-pyrazol-4-yl)pyrimidin-2-ylamino)-N-methylbenzamide] | > 7.00
22 | CN(C)C(=O)c1cccc(Nc2nccc(-c3cnn(C(CC#N)C4CCCC4)c3)n2)c1 (racemic) [Example 110, 3-(4-(1-(2-cyano-1-cyclopentylethyl)-1H-pyrazol-4-yl)pyrimidin-2-ylamino)-N,N-dimethylbenzamide] | > 7.00
23 | N#CCC(C1CCCC1)n1cc(-c2ccnc(Nc3cccc(C(=O)N4CCC(O)CC4)c3)n2)cn1 (racemic) [Example 111, 3-cyclopentyl-3-(4-(2-(3-(4-hydroxypiperidine-1-carbonyl)phenylamino)pyrimidin-4-yl)-1H-pyrazol-1-yl)propanenitrile] | > 7.00
24 | N#CCC(C1CCCC1)n1cc(-c2ccnc(Nc3cccc(C(=O)NCCO)c3)n2)cn1 (racemic) [Example 112, 3-(4-(1-(2-cyano-1-cyclopentylethyl)-1H-pyrazol-4-yl)pyrimidin-2-ylamino)-N-(2-hydroxyethyl)benzamide] | > 7.00
25 | CCS(=O)(=O)Nc1cccc(Nc2nccc(-c3cnn(C(CC#N)C4CCCC4)c3)n2)c1 (racemic) [Example 114, N-(3-(4-(1-(2-cyano-1-cyclopentylethyl)-1H-pyrazol-4-yl)pyrimidin-2-ylamino)phenyl)ethanesulfonamide] | > 7.00
26 | CS(=O)(=O)Nc1cccc(Nc2nccc(-c3cnn(C(CC#N)C4CCCC4)c3)n2)c1 (racemic) [Example 115, N-(3-(4-(1-(2-cyano-1-cyclopentylethyl)-1H-pyrazol-4-yl)pyrimidin-2-ylamino)phenyl)methanesulfonamide] | > 7.00
27 | COC(=O)Nc1cccc(Nc2nccc(-c3cnn(C(CC#N)C4CCCC4)c3)n2)c1 (racemic) [Example 116, Methyl 3-(4-(1-(2-cyano-1-cyclopentylethyl)-1H-pyrazol-4-yl)pyrimidin-2-ylamino)phenylcarbamate] | > 7.00
28 | CC(=O)Nc1cccc(Nc2nccc(-c3cnn(C(CC#N)C4CCCC4)c3)n2)c1 (racemic) [Example 117, N-(3-(4-(1-(2-cyano-1-cyclopentylethyl)-1H-pyrazol-4-yl)pyrimidin-2-ylamino)phenyl)acetamide] | > 7.00
29 | N#CCC(C1CCCC1)n1cc(-c2ccnc(Nc3cccc(NC(=O)CN4CCCC4)c3)n2)cn1 (racemic) [Example 118, N-(3-(4-(1-(2-cyano-1-cyclopentylethyl)-1H-pyrazol-4-yl)pyrimidin-2-ylamino)phenyl)-2-(pyrrolidin-1-yl)acetamide] | > 7.00
30 | CN1CCN(C(=O)c2ccc(Nc3nccc(-c4cnn(C(CC#N)C5CCCC5)c4)n3)cc2)CC1 (racemic) [Example 120, 3-cyclopentyl-3-(4-(2-(4-(4-methylpiperazine-1-carbonyl)phenylamino)pyrimidin-4-yl)-1H-pyrazol-1-yl)propanenitrile] | > 7.00
31 | N#CCC(C1CCCC1)n1cc(-c2ccnc(Nc3ccc(C(=O)N4CCN(CCO)CC4)cc3)n2)cn1 (racemic) [Example 121, 3-cyclopentyl-3-(4-(2-(4-(4-(2-hydroxyethyl)piperazine-1-carbonyl)phenylamino)pyrimidin-4-yl)-1H-pyrazol-1-yl)propanenitrile] | > 7.00
